Experimental data taken from patent US9611223B2, “3-aryl-5-substituted-isoquinolin-1-one compounds and their therapeutic use” (INSTITUTE OF CANCER RESEARCH: ROYAL CANCER HOSPITAL (THE), priority 2013, dated 2017).
Several values for one entry are separate records, joined by “and”; a condition that tells them apart may be missing. Equal entries are not always repeated. Where two headings read alike, the source gives them in different places.

Experiments:
COLO320DM cells = test: Tumour Cell Inhibition Assay (COLO320DM cells); format: cell-based; details: Homo sapiens, COLO 320DM, 120 h, five day exposure
Experimental: Tumour Cell Inhibition in Colorectal Tumour Cells
In order to determine the efficacy of acute dosing of putative TNKS inhibitors, five day exposure cell viability assays were carried out. This included the sparse seeding of cells in a 96-well plate followed by continuous dosing of cells over a five day period.
Appropriate cell lines (HT55, COLO320DM and SW620) were seeded at 500 cells/well in a 96-well plate in MEM (HT55), RPMI (COLO320DM) or DMEM (SW620) supplemented with FBS. After overnight incubation, cells were treated with the appropriate putative TNKS inhibitor in 6 or 10 concentrations ranging from 0 μM to 10 μM at 0.2% final DMSO concentration in appropriate media supplemented with 10% or 0.5% FBS. Dosages were carried out in triplicate. Termination of the assay and measurement of cell viability was achieved by the use of Cell Titre Glo reagent and luminescence measurement on an appropriate plate reader.
Dose response curves used to determine SF50 values were Log transformed and analysed by non-linear regression analysis (variable slope) using Prism (GraphPad Software, Inc).

TNKS1 = target: T1, TNKS1 (Homo sapiens, UniProt O95271, M1266I); test: TNKS1/PARP Biochemical Assay
T1 construct: expresses the active PARP domain of TNKS1 as a polyhistidine tagged protein; made in house; host or cells: E. coli Rosetta2(DE3)
T1 sequence (O95271 1112-1317 M1266I): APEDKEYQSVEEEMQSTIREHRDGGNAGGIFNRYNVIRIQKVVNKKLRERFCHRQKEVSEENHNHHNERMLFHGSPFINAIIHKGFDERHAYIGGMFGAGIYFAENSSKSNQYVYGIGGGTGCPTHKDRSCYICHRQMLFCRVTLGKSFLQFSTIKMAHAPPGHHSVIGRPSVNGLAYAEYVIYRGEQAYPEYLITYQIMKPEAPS
Experimental: TNKS1/PARP Biochemical Assay
Tankyrase activity was assayed using a 96-well format HT Universal Chemiluminescent PARP Assay Kit (Trevigen, Inc, cat. no. 4676-096-K) according to the manufacturer's instructions. In short, tankyrase/PARP activity is quantified by the incorporation of biotinylated nicotinamide adenine dinucleotide (biotin-NAD^+) onto the immobilised pseudo substrate, Histone. The extent of poly(Biotin-ADP)ribosylation (PARylation) in the presence of increasing dose of inhibitor is then quantified by binding of streptavidin conjugated horse radish peroxidase (strep-HRP) followed by chemiluminescent detection.
Prior to assay initiation, inhibitor stocks were prepared in aqueous DMSO (10% (v/v)) from 5 millimolar (mM) stock in 100% DMSO (Sigma Aldrich, cat. no. 265855) as 10× concentrations. For the primary assay (i.e., single dose at 1 micromolar (μM) final concentration) this corresponded to 10 μM in 10% DMSO. For IC50 determination, this corresponded to 100 μM, 30 μM, 10 μM, 3.0 μM, 1.0 μM, 0.30 μM, 0.10 μM and 0 μM in 10% DMSO for final concentrations of 10 μM, 3.0 μM, 1.0 μM, 0.30 μM, 0.10 μM, 0.030 μM, 0.010 μM, and 0 μM with 1% (v/v) final DMSO. The assay was initiated by the addition of 10× inhibitor (5 microliters (μL)) or 10% aqueous DMSO (5 μL) to triplicate wells. Twenty microliters of diluted TNKS1 protein (200 nanomolar (nM) final conc.) in PARP buffer (Trevigen, Inc, cat. no. 4671-096-02) was added to each histone coated well, which was previously hydrated with PARP buffer. Triplicate wells with 1% DMSO/buffer alone (no enzyme) were also added as a measure of assay ‘noise’. Positive control for PARP inhibition included the addition of 4-amino-1,8-naphthalimide (Sigma Aldrich, cat. no A0966) in corresponding doses.
The mixture was incubated for 10 minutes at room temperature and the PARylation reaction initiated by the addition of PARP cocktail (25 μL, Trevigen, Inc) containing biotin-NAD^+ (Trevigen, Inc, cat. no. 4670-500-01), activated DNA (Trevigen, Inc, cat. no. 4671-096-06) and PARP buffer. The reaction was incubated for 1.5 hours (for TNKS1) or 1 hour (for PARP1) at room temperature. The reaction mixture was then removed by aspiration and the wells washed (3×200 μL) with phosphate buffered saline containing Triton X-100 (0.1% (v/v), Sigma Aldrich cat. no. T8787). The wells were then washed (3×200 μL) with phosphate buffered saline and then incubated with strep-HRP (50 μL, Trevigen, Inc, cat. no. 4800-30-06) in strep-diluent (1:500 dilution, Trevigen Inc, cat. no. 4671-096-04) for 1 hour at room temperature. The Strep-HRP mixture was then aspirated and the wells washed (3×200 μL) with phosphate buffered saline containing Triton X-100 (0.1% (v/v)) followed by phosphate buffered saline (3×200 μL) and then incubated with PeroxyGlow™ reagent (100 μL, Trevigen, Inc, cat. nos. 4675-096-01, 4675-096-02, room temperature, mixed 1:1).
The amount of light emitted as a result of the peroxidase-chemiluminescent reagent reaction was in proportion to the extent of poly(Biotin-ADP)ribosylation and was immediately measured with a Victor^2 plate reader (Perkin Elmer, luminescence detection assay, luminescent units described as ‘Counts Per Second’ (CPS)). The data were normalised to the DMSO control after subtraction of ‘noise’ and was expressed as % PARP activity as a function of inhibitor dose. Inhibition was expressed as 100%−(% PARP activity). Dose response curves used to determine IC50 values were Log transformed and analysed by non-linear regression analysis (variable slope) using Prism (GraphPad Software, Inc) and were presented as IC50 with 95% confidence interval to determine relative potency.
Tankyrase1 (pNIC-Bsa4-TNKS1^PARP) expression construct was obtained from the Structural Genomics Consortium (SGC) and expresses the active PARP domain of TNKS1 as a polyhistidine tagged protein. […]

[1] = read-out: cell inhibitory SF50 (COLO320DM)

SMILES | IC50 (COLO320DM cells; [1]) | IC50 (TNKS1) | IC50 (COLO320DM cells; replicate, read-out: cell inhibitory SF50 (COLO320DM), replicate)
CN(C)Cc1nccn1Cc1ccc(-c2cc3c(C#N)cccc3c(=O)[nH]2)cc1 [IQ-016] | < 5000 nM | < 50 nM | –
Cc1nnc(N2CCN(Cc3ccc(-c4cc5c(C#N)cccc5c(=O)[nH]4)cc3)CC2(C)C)o1 [IQ-058] | – | < 100 nM | –
Cc1nnc(N(C)C2CN(Cc3ccc(-c4cc5c(C#N)cccc5c(=O)[nH]4)cc3)C2)o1 [IQ-047] | < 5000 nM | < 50 nM | –
Cc1nnc(N2CCCN(Cc3ccc(-c4cc5c(C#N)cccc5c(=O)[nH]4)cc3)CC2)o1 [IQ-049] | < 5000 nM | < 50 nM | –
CC(c1ccc(-c2cc3c(C#N)cccc3c(=O)[nH]2)cc1)n1ccnc1CO (centres unmarked) [IQ-038] | < 5000 nM | < 50 nM | –
COCc1nccn1Cc1ccc(-c2cc3c(C#N)cccc3c(=O)[nH]2)cc1 [IQ-017] | – | < 50 nM | –
CC(c1ccc(-c2cc3c(C#N)cccc3c(=O)[nH]2)cn1)n1ccnc1 (centres unmarked) [IQ-034] | – | < 50 nM | –
CN(C)Cc1cccc2c(=O)[nH]c(-c3ccc(CN4CCN(C)CC4)cc3)cc12 [IQ-024, 5-Dimethylaminomethyl-3-[4-(4-methyl-piperazin-1-ylmethyl)-phenyl]-2H-isoquinolin-1-one] | < 5000 nM | – | –
CC(c1ccc(-c2cc3c(C#N)cccc3c(=O)[nH]2)cc1)N1CC(O)C1 (centres unmarked) [IQ-009, 3-{4-[1-(3-Hydroxy-azetidin-1-yl)-ethyl]-phenyl}-1-oxo-1,2-dihydro-isoquinoline-5-carbonitrile] | – | < 50 nM | –
COCc1nccn1Cc1ccc(-c2cc3c(CN)cccc3c(=O)[nH]2)cc1 [IQ-023, 5-Aminomethyl-3-[4-(2-methoxymethyl-imidazol-1-ylmethyl)-phenyl]-2H-isoquinolin-1-one] | – | < 50 nM | –
COCc1ccn(Cc2ccc(-c3cc4c(C#N)cccc4c(=O)[nH]3)cc2)n1 [IQ-033] | < 5000 nM | < 50 nM | –
Cc1nnc(N2CCN(c3ccc(-c4cc5c(C#N)cccc5c(=O)[nH]4)cc3)CC2)o1 [IQ-055, 3-{4-[4-(5-Methyl-[1,3,4]oxadiazol-2-yl)piperazin-1-yl]phenyl}-1-oxo-1,2-dihydroisoquinoline-5-carbonitrile] | – | < 50 nM | –
Cc1nnc(N(C)Cc2ccc(-c3cc4c(C#N)cccc4c(=O)[nH]3)cc2)o1 [IQ-042] | < 5000 nM | < 50 nM | –
CCc1nnc(N2CCN(Cc3ccc(-c4cc5c(C#N)cccc5c(=O)[nH]4)cc3)CC2)o1 [IQ-044] | – | < 50 nM | –
Cc1nccn1Cc1ccc(-c2cc3c(C#N)cccc3c(=O)[nH]2)cc1 [IQ-013] | – | < 100 nM and < 50 nM and 18 nM | 1120 nM
CC(c1ccc(-c2cc3c(C#N)cccc3c(=O)[nH]2)cc1)n1ccnc1 (centres unmarked) [IQ-029] | – | < 50 nM | –
N#Cc1cccc2c(=O)[nH]c(-c3ccc(Cn4ccnn4)cc3)cc12 [IQ-030] | < 5000 nM | < 50 nM | –

SMILES | IC50 (COLO320DM cells; [1]) | IC50 (TNKS1) | IC50 (COLO320DM cells; replicate, read-out: cell inhibitory SF50 (COLO320DM), replicate)
CC(C)c1nnc(N2CCN(Cc3ccc(-c4cc5c(C#N)cccc5c(=O)[nH]4)cc3)CC2)o1 [IQ-019] | – | < 50 nM | –
Cc1nnc(N2CCN(Cc3ccc(-c4cc5c(C#N)cccc5c(=O)[nH]4)cc3)CC2)o1 [IQ-020] | < 5000 nM | < 50 nM | –
Cc1nnc(N2CCN(C(C)c3ccc(-c4cc5c(C#N)cccc5c(=O)[nH]4)cc3)CC2)o1 (centres unmarked) [IQ-032] | – | < 50 nM | –
N#Cc1cccc2c(=O)[nH]c(-c3ccc(CN)cc3)cc12 [IQ-043] | – | < 100 nM | –
COCc1ccnn1Cc1ccc(-c2cc3c(C#N)cccc3c(=O)[nH]2)cc1 [IQ-031] | – | < 100 nM | –
Cc1nnc(N2CCN(Cc3ccc(-c4cc5c(C#N)cccc5c(=O)[nH]4)cc3)CC2C)o1 (centres unmarked) [IQ-056] | < 5000 nM | < 50 nM | –
CN(C(=O)c1ccc(-c2cc3c(C#N)cccc3c(=O)[nH]2)cc1)C1CCN(CC2CC2)CC1 [IQ-006] | < 5000 nM | < 50 nM | –
CC(C)(C)OC(=O)N1CCN(Cc2ccc(-c3cc4c(C#N)cccc4c(=O)[nH]3)cc2)CC1 [IQ-046] | < 5000 nM | – | –
Cc1nnc(N2CCCN(c3ccc(-c4cc5c(C#N)cccc5c(=O)[nH]4)cc3)CC2)o1 [IQ-059, 3-{4-[4-(5-Methyl-[1,3,4]oxadiazol-2-yl)-[1,4]diazepan-1-yl]-phenyl}-1-oxo-1,2-dihydro-isoquinoline-5-carbonitrile] | < 5000 nM | < 50 nM | –
CC(C)(C)OC(=O)N1CCN(c2ccc(-c3cc4c(C#N)cccc4c(=O)[nH]3)cn2)CC1 [IQ-051] | < 5000 nM | – | –
COCCN(CCOC)C(=O)c1ccc(-c2cc3c(C#N)cccc3c(=O)[nH]2)cc1 [IQ-008] | – | < 100 nM | –
Cc1nnc(N2CCN(Cc3ccc(-c4cc5c(C#N)cccc5c(=O)[nH]4)cc3)C(C)C2)o1 (centres unmarked) [IQ-040] | < 5000 nM | < 100 nM | –
COCc1nccn1C(C)c1ccc(-c2cc3c(C#N)cccc3c(=O)[nH]2)cc1 (centres unmarked) [IQ-028] | < 5000 nM | < 50 nM | –
Cc1nnc(N2CCN(Cc3ccc(-c4cc5c(CN)cccc5c(=O)[nH]4)cc3)CC2)o1 [IQ-022] | – | < 50 nM | –
N#Cc1cccc2c(=O)[nH]c(-c3ccc(C(=O)N(CCO)CCO)cc3)cc12 [IQ-010, 4-(5-Cyano-1-oxo-1,2-dihydro-isoquinolin-3-yl)-N,N-bis-(2-hydroxy-ethyl)-benzamide] | – | < 50 nM | –
Cc1nnc(N2CCN(Cc3ccc(-c4cc5c(C#N)cccc5c(=O)[nH]4)cc3)C(C)(C)C2)o1 [IQ-057] | < 5000 nM | < 50 nM | –
Cc1nnc(N2CCN(Cc3ccc(-c4cc5c(C#N)cc(F)cc5c(=O)[nH]4)cc3)CC2)o1 [IQ-039] | < 5000 nM | < 50 nM | –
